Test results from patent publication US20020028472A1, “Methods for identifying inhibitors of the anaphase promoting complex” (priority 2000, published 2002).

Target: T1, APC11 fused to Maltose Binding Protein (MBP-APC11) (Homo sapiens, UniProt Q9NYG5)
T1 construct: obtained by inserting the APC11 coding region into the commercially available vector pMAL, New England Biolabs; made in house; host or cells: E. coli, grown with 1 mM ZnCl2; purified on amylose resin
Assay: FRET assay of APC11-mediated formation of multiubiquitin chains
Assay type: biochemical
Conditions: DTT titrated 0 to 30 mM; 60 min at 37° C.; E1 UBA1, E2 HIS-UBCH5b; FRET europium/allophycocyanin

T1 sequence (Q9NYG5 whole entry, the tested form may be a part): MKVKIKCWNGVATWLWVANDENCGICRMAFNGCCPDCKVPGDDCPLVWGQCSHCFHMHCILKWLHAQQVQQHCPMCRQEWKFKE

inhibition of the APC11-mediated formation of multiubiquitin chains: inhibition
SMILES: O[C@H](CS)[C@H](O)CS (racemic) [DTT, dithiothreitol]
